From patent US20260262643A1, “HERBICIDAL BENZOXAZINES” (FMC CORPORATION, priority 2022, published 2026)

Key:
barnyardgrass [1] = test: Test D flooded paddy test; assay type: in vivo, Echinochloa crus-galli; details: 250 g ai/ha, applied to paddy water, visual rating after 13 to 14 days, scale 0 to 100 (0 no effect, 100 complete control)
Summary of the method: (§1)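 2-leaf plants; flood 3 cm above soil; compound dosed into paddy water; greenhouse 13–14 d; visual rating vs controls, 0–100 (100 = complete control); dash = not tested.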

sedge, umbrella = test: Test D flooded paddy test; assay type: in vivo, Cyperus difformis; details: 250 g ai/ha, applied to paddy water, visual rating after 13 to 14 days, scale 0 to 100 (0 no effect, 100 complete control)
Summary of the method: as §1

green foxtail [2] = test: Test C postemergence; assay type: in vivo, Setaria viridis; details: 10 days, 0 to 100 scale (0 no effect, 100 complete control)
Summary of the method: (§2)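 Greenhouse herbicide screen, 10-day duration. Test chemicals in solvent/surfactant blend were sprayed onto soil at sowing (pre) or onto 2–10 cm seedlings at one to two leaves (post); injury scored visually against controls, 0 no effect to 100 complete control.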

ryegrass, Italian [3] = test: Test C postemergence; assay type: in vivo, Lolium multiflorum; details: 10 days, 0 to 100 scale (0 no effect, 100 complete control)
Summary of the method: as §2

ducksalad = test: Test D flooded paddy test; assay type: in vivo, Heteranthera limosa; details: 250 g ai/ha, applied to paddy water, visual rating after 13 to 14 days, scale 0 to 100 (0 no effect, 100 complete control)
Summary of the method: as §1

horseweed = test: Test C postemergence; assay type: in vivo, Erigeron canadensis; details: 10 days, 0 to 100 scale (0 no effect, 100 complete control)
Summary of the method: as §2

barnyardgrass [4] = test: Test C postemergence; assay type: in vivo, Echinochloa crusgalli; details: 10 days, 0 to 100 scale (0 no effect, 100 complete control)
Summary of the method: as §2

soybean [5] = test: Test C preemergence; assay type: in vivo, Glycine max; details: preemergence, 0 to 100 scale (0 no effect, 100 complete control)
Summary of the method: as §2

ragweed [6] = test: Test C preemergence; assay type: in vivo, Ambrosia artemisiifolia; details: preemergence, 0 to 100 scale (0 no effect, 100 complete control)
Summary of the method: as §2

pigweed, palmer [7] = test: Test C postemergence; assay type: in vivo, Amaranthus palmeri; details: 10 days, 0 to 100 scale (0 no effect, 100 complete control)
Summary of the method: as §2

ragweed [8] = test: Test C postemergence; assay type: in vivo, Ambrosia artemisiifolia; details: 10 days, 0 to 100 scale (0 no effect, 100 complete control)
Summary of the method: as §2

barnyardgrass [9] = test: Test C preemergence; assay type: in vivo, Echinochloa crusgalli; details: preemergence, 0 to 100 scale (0 no effect, 100 complete control)
Summary of the method: as §2

kochia [10] = test: Test C postemergence; assay type: in vivo, Bassia scoparia; details: 10 days, 0 to 100 scale (0 no effect, 100 complete control)
Summary of the method: as §2

wheat [11] = test: Test C postemergence; assay type: in vivo, Triticum aestivum; details: 10 days, 0 to 100 scale (0 no effect, 100 complete control)
Summary of the method: as §2

wheat [12] = test: Test C preemergence; assay type: in vivo, Triticum aestivum; details: preemergence, 0 to 100 scale (0 no effect, 100 complete control)
Summary of the method: as §2

rice = test: Test D flooded paddy test; assay type: in vivo, Oryza sativa; details: 250 g ai/ha, applied to paddy water, visual rating after 13 to 14 days, scale 0 to 100 (0 no effect, 100 complete control)
Summary of the method: as §1

blackgrass [13] = test: Test C preemergence; assay type: in vivo, Alopecurus myosuroides; details: preemergence, 0 to 100 scale (0 no effect, 100 complete control)
Summary of the method: as §2

pigweed, palmer [14] = test: Test C preemergence; assay type: in vivo, Amaranthus palmeri; details: preemergence, 0 to 100 scale (0 no effect, 100 complete control)
Summary of the method: as §2

corn [15] = test: Test C preemergence; assay type: in vivo, Zea mays; details: preemergence, 0 to 100 scale (0 no effect, 100 complete control)
Summary of the method: as §2

ryegrass, Italian [16] = test: Test C preemergence; assay type: in vivo, Lolium multiflorum; details: preemergence, 0 to 100 scale (0 no effect, 100 complete control)
Summary of the method: as §2

oat, wild [17] = test: Test C preemergence; assay type: in vivo, Avena fatua; details: preemergence, 0 to 100 scale (0 no effect, 100 complete control)
Summary of the method: as §2

oat, wild [18] = test: Test C postemergence; assay type: in vivo, Avena fatua; details: 10 days, 0 to 100 scale (0 no effect, 100 complete control)
Summary of the method: as §2

blackgrass [19] = test: Test C postemergence; assay type: in vivo, Alopecurus myosuroides; details: 10 days, 0 to 100 scale (0 no effect, 100 complete control)
Summary of the method: as §2

soybean [20] = test: Test C postemergence; assay type: in vivo, Glycine max; details: 10 days, 0 to 100 scale (0 no effect, 100 complete control)
Summary of the method: as §2

corn [21] = test: Test C postemergence; assay type: in vivo, Zea mays; details: 10 days, 0 to 100 scale (0 no effect, 100 complete control)
Summary of the method: as §2

galium = test: Test C postemergence; assay type: in vivo, Galium aparine; details: 10 days, 0 to 100 scale (0 no effect, 100 complete control)
Summary of the method: as §2

kochia [22] = test: Test C preemergence; assay type: in vivo, Bassia scoparia; details: preemergence, 0 to 100 scale (0 no effect, 100 complete control)
Summary of the method: as §2

green foxtail [23] = test: Test C preemergence; assay type: in vivo, Setaria viridis; details: preemergence, 0 to 100 scale (0 no effect, 100 complete control)
Summary of the method: as §2

## Cc1cccc2c1OC(C(F)(F)F)CN2C(=O)c1cccc(-n2cnc(C(C)C)n2)c1 (racemic) [Compound 301]
Barnyardgrass [1]
  Plant response rating, Barnyardgrass (Flood): 20
sedge, umbrella
  Plant response rating, Sedge, Umbrella (Flood): 85
Green foxtail [2]; 500 g ai/ha, postemergence
  Plant response rating, Foxtail, Green: 70
Green foxtail [2]; Postemergence, 125 g ai/ha
  Plant response rating, Foxtail, Green: 10
ryegrass, Italian [3]; 500 g ai/ha, postemergence
  Plant response rating, Ryegrass, Italian: 80
ryegrass, Italian [3]; Postemergence, 125 g ai/ha
  Plant response rating, Ryegrass, Italian: 70
ducksalad
  Plant response rating, Ducksalad (Flood): 55
horseweed; 500 g ai/ha, postemergence
  Plant response rating, Horseweed: 0
horseweed; Postemergence, 125 g ai/ha
  Plant response rating, Horseweed: 20
Barnyardgrass [4]; 500 g ai/ha, postemergence
  Plant response rating, Barnyardgrass: 40
Barnyardgrass [4]; Postemergence, 125 g ai/ha
  Plant response rating, Barnyardgrass: 10
Soybean [5]; 500 g ai/ha
  Soybean plant response rating: 100
Soybean [5]; Test C, 125 g ai/ha
  Soybean plant response rating: 10
Ragweed [6]; 500 g ai/ha
  Ragweed plant response rating: 50
Ragweed [6]; Test C, 125 g ai/ha
  Ragweed plant response rating: 0
pigweed, palmer [7]; 500 g ai/ha, postemergence
  Plant response rating, Pigweed, Palmer: 60
pigweed, palmer [7]; Postemergence, 125 g ai/ha
  Plant response rating, Pigweed, Palmer: 10
Ragweed [8]; 500 g ai/ha, postemergence
  Plant response rating, Ragweed: 60
Ragweed [8]; Postemergence, 125 g ai/ha
  Plant response rating, Ragweed: 30
Barnyardgrass [9]; 500 g ai/ha
  Barnyardgrass plant response rating: 90
Barnyardgrass [9]; Test C, 125 g ai/ha
  Barnyardgrass plant response rating: 50
Kochia [10]; 500 g ai/ha, postemergence
  Plant response rating, Kochia: 80
Kochia [10]; Postemergence, 125 g ai/ha
  Plant response rating, Kochia: 50
Wheat [11]; 500 g ai/ha, postemergence
  Plant response rating, Wheat: 50
Wheat [11]; Postemergence, 125 g ai/ha
  Plant response rating, Wheat: 20
Wheat [12]; 500 g ai/ha
  Wheat plant response rating: 90
Wheat [12]; Test C, 125 g ai/ha
  Wheat plant response rating: 40
rice
  Plant response rating, Rice (Flood): 15
Blackgrass [13]; 500 g ai/ha
  Blackgrass plant response rating: 100
Blackgrass [13]; Test C, 125 g ai/ha
  Blackgrass plant response rating: 90
pigweed, palmer [14]; 500 g ai/ha
  Pigweed, Palmer plant response rating: 100
pigweed, palmer [14]; Test C, 125 g ai/ha
  Pigweed, Palmer plant response rating: 90
Corn [15]; 500 g ai/ha
  Corn plant response rating: 0
Corn [15]; Test C, 125 g ai/ha
  Corn plant response rating: 0
ryegrass, Italian [16]; 500 g ai/ha
  Ryegrass, Italian plant response rating: 100
ryegrass, Italian [16]; Test C, 125 g ai/ha
  Ryegrass, Italian plant response rating: 100
oat, wild [17]; 500 g ai/ha
  Oat, Wild plant response rating: 90
oat, wild [17]; Test C, 125 g ai/ha
  Oat, Wild plant response rating: 70
oat, wild [18]; 500 g ai/ha, postemergence
  Plant response rating, Oat, Wild: 50
oat, wild [18]; Postemergence, 125 g ai/ha
  Plant response rating, Oat, Wild: 20
Blackgrass [19]; 500 g ai/ha, postemergence
  Plant response rating, Blackgrass: 100
Blackgrass [19]; Postemergence, 125 g ai/ha
  Plant response rating, Blackgrass: 90
Soybean [20]; 500 g ai/ha, postemergence
  Plant response rating, Soybean: 100
Soybean [20]; Postemergence, 125 g ai/ha
  Plant response rating, Soybean: 100
Corn [21]; 500 g ai/ha, postemergence
  Plant response rating, Corn: 80
Corn [21]; Postemergence, 125 g ai/ha
  Plant response rating, Corn: 10
galium; 500 g ai/ha, postemergence
  Plant response rating, Galium: 100
galium; Postemergence, 125 g ai/ha
  Plant response rating, Galium: 100
Kochia [22]; 500 g ai/ha
  Kochia plant response rating: 90
Kochia [22]; Test C, 125 g ai/ha
  Kochia plant response rating: 80
Green foxtail [23]; 500 g ai/ha
  Foxtail, Green plant response rating: 100
Green foxtail [23]; Test C, 125 g ai/ha
  Foxtail, Green plant response rating: 100
